# Source: article PMC8443589, “Modelling human liver fibrosis in the context of non-alcoholic steatohepatitis using a microphysiological system” (Communications Biology, 2021)
# Test system: liver MPS NASH model + TGFβ (PHH, KC and HSC co-cultures, high fat)
# Test: Secreted cytokine profile of enhanced liver MPS NASH model with TGFβ dosed with OCA or ELF (Fig 6a)
# Assay type: cell-based, human
# Conditions: for IL-1RA production, fold change compared to control / IL-4 production, fold change compared to control / IL-6 production, fold change compared to control / IL-8 production, fold change compared to control / IP-10 production, fold change compared to control / MCP-1 production, fold change compared to control / MIP-1a production, fold change compared to control / MIP-1b production, fold change compared to control / VEGF production, fold change compared to control: vs NASH + TGFβ control
# Text: The systems biology approach identified TGFβ to be a key driver in creating a more advanced NASH phenotype in the MPS model, with enhanced fibrotic markers and reduced liver function. […] Therefore, we explored how effective pharmacological intervention would be for NASH microtissues with high NPC numbers supplemented with TGFβ and exposed them to varying concentrations of OCA and ELF QD as previously described (Supp. Fig. 6a). […] OCA had the greatest effect on IL-1Rα whereas ELF had the greatest effect on MCP-1 reflecting the fact that while both candidate drugs have anti-inflammatory properties, but their mechanisms of action are different. […] Finally, we used our quantitative fibrosis imaging assay to assess the effect of each candidate drug on collagen-1 deposition and α-SMA expression (Fig. 6c). […] Both candidate drugs caused a significant reduction in collagen-1 deposition and α-SMA expression, with the highest concentrations of OCA and ELF causing an 80% reduction in α-SMA expression and a 75% reduction in collagen-1 deposition (Fig. 6c).
# Fig. 6 Using enhanced liver MPS NASH model with TGFβ, Obeticholic acid and Elafibranor modulate disease phenotype to a greater extent than in standard NASH model. PHH, KC and HSC co-cultures were cultured in the MPS platform under high-fat conditions and dosed with varying concentrations of Obeticholic acid (OCA) and Elafibranor (ELF) QD or vehicle control for 10 days, following an initial 4-day pre-culture phase. Throughout the compound dosing period TGFβ was also dosed onto all microtissues (NASH only vehicle control samples were also included in the study for comparison, which were not treated with TGFβ or dosed with any compound). a The secreted cytokine profile from treated liver microtissues was compared to determine the effects of each compound on the inflammatory profile of the liver with samples analysed at day 8 and 14 of the culture. Data were normalised by Z-transformation to allow comparison of all analytes (white = undetected). b The expression of fibrosis-associated biomarkers was analysed on day 14 media samples and compared to NASH + TGFβ control samples. c Liver microtissues were stained for collagen-type I, α-SMA, nuclei (DAPI), phalloidin (green) and imaged by confocal microscopy. Representative images are shown and scale bars 200 µm. Staining of microtissues was quantified by measuring total fluorescence intensity throughout individual microtissues, each data point represents an average of all microtissues per MPS culture (min 8, max 20). All datapoints shown with error bars highlighting means ± SD, all data from a minimum of three independent cultures: all comparisons were made to NASH + TGFβ control samples.
# Cytokine profiles in cell culture medium samples were also analysed by Luminex array for determination of 38 analytes in total, consisting of cytokines, chemokines, and growth factors using the MILLIPLEX MAP Human Cytokine/Chemokine Magnetic Bead Panel - Premixed 38 Plex (Merck Millipore, USA).
# Liver microtissues were cultured for 4 days in HEP-FAT medium, before dosing with obeticholic acid or elafibranor. Both compounds were dissolved in DMSO, diluted in cell culture medium (final DMSO concentration ≤1%) and added to microtissues during a full medium change every two days and in addition on the intervening days compounds were spiked into the media to increase drug concentration back to desired concentrations. Cultures were maintained in the presence of the compound, for a total of 10 days in the presence or absence of TGFβ.
structure (smiles),measurement,setting,value
CC[C@H]1[C@@H](O)[C@@H]2[C@H](CC[C@]3(C)[C@@H]([C@H](C)CCC(=O)O)CC[C@@H]23)[C@@]2(C)CC[C@@H](O)C[C@@H]12 [Obeticholic acid],"IL-1RA production, fold change compared to control","0.25 µM, Day 8",1.08 fold change
same,"IL-4 production, fold change compared to control","0.25 µM, Day 8",1.009 fold change
same,"IL-6 production, fold change compared to control","0.25 µM, Day 8",1.014 fold change
same,"IL-8 production, fold change compared to control","0.25 µM, Day 8",1.005 fold change
same,"IP-10 production, fold change compared to control","0.25 µM, Day 8",1.251 fold change
same,"MCP-1 production, fold change compared to control","0.25 µM, Day 8",1.076 fold change
same,"MIP-1a production, fold change compared to control","0.25 µM, Day 8",0.8432 fold change
same,"MIP-1b production, fold change compared to control","0.25 µM, Day 8",0.7821 fold change
same,"VEGF production, fold change compared to control","0.25 µM, Day 8",1.067 fold change
same,"IL-1RA production, fold change compared to control","0.25 µM, Day 14",0.5028 fold change
same,"IL-4 production, fold change compared to control","0.25 µM, Day 14",0.8171 fold change
same,"IL-6 production, fold change compared to control","0.25 µM, Day 14",0.4566 fold change
same,"IL-8 production, fold change compared to control","0.25 µM, Day 14",0.6873 fold change
same,"IP-10 production, fold change compared to control","0.25 µM, Day 14",1.095 fold change
same,"MCP-1 production, fold change compared to control","0.25 µM, Day 14",0.7086 fold change
same,"MIP-1a production, fold change compared to control","0.25 µM, Day 14",0.8386 fold change
same,"VEGF production, fold change compared to control","0.25 µM, Day 14",1.001 fold change
same,"IL-1RA production, fold change compared to control","5 µM, Day 8",0.6972 fold change
same,"IL-4 production, fold change compared to control","5 µM, Day 8",1.1399 fold change
same,"IL-6 production, fold change compared to control","5 µM, Day 8",1.2962 fold change
same,"IL-8 production, fold change compared to control","5 µM, Day 8",1.283 fold change
same,"IP-10 production, fold change compared to control","5 µM, Day 8",1.04 fold change
same,"MCP-1 production, fold change compared to control","5 µM, Day 8",0.9329 fold change
same,"MIP-1a production, fold change compared to control","5 µM, Day 8",0.9021 fold change
same,"MIP-1b production, fold change compared to control","5 µM, Day 8",0.7383 fold change
same,"VEGF production, fold change compared to control","5 µM, Day 8",1.4206 fold change
same,"IL-1RA production, fold change compared to control","5 µM, Day 14",0.2072 fold change
same,"IL-4 production, fold change compared to control","5 µM, Day 14",1.048 fold change
same,"IL-6 production, fold change compared to control","5 µM, Day 14",0.937 fold change
same,"IL-8 production, fold change compared to control","5 µM, Day 14",0.8309 fold change
same,"IP-10 production, fold change compared to control","5 µM, Day 14",1.661 fold change
same,"MCP-1 production, fold change compared to control","5 µM, Day 14",0.6601 fold change
same,"MIP-1a production, fold change compared to control","5 µM, Day 14",1.231 fold change
same,"MIP-1b production, fold change compared to control","5 µM, Day 14",1.514 fold change
same,"VEGF production, fold change compared to control","5 µM, Day 14",2.374 fold change
same,"IL-1RA production, fold change compared to control","12.5 µM, Day 8",0.3318 fold change
same,"IL-4 production, fold change compared to control","12.5 µM, Day 8",0.7385 fold change
same,"IL-6 production, fold change compared to control","12.5 µM, Day 8",0.7346 fold change
same,"IL-8 production, fold change compared to control","12.5 µM, Day 8",0.6207 fold change
same,"IP-10 production, fold change compared to control","12.5 µM, Day 8",1.145 fold change
same,"MCP-1 production, fold change compared to control","12.5 µM, Day 8",0.4485 fold change
same,"MIP-1a production, fold change compared to control","12.5 µM, Day 8",1.263 fold change
same,"MIP-1b production, fold change compared to control","12.5 µM, Day 8",1.247 fold change
same,"VEGF production, fold change compared to control","12.5 µM, Day 8",1.208 fold change
same,"IL-1RA production, fold change compared to control","12.5 µM, Day 14",0.02359 fold change
same,"IL-4 production, fold change compared to control","12.5 µM, Day 14",0.2784 fold change
same,"IL-6 production, fold change compared to control","12.5 µM, Day 14",0.3766 fold change
same,"IL-8 production, fold change compared to control","12.5 µM, Day 14",0.4421 fold change
same,"IP-10 production, fold change compared to control","12.5 µM, Day 14",0.932 fold change
same,"MCP-1 production, fold change compared to control","12.5 µM, Day 14",0.2604 fold change
same,"MIP-1a production, fold change compared to control","12.5 µM, Day 14",1.011 fold change
same,"MIP-1b production, fold change compared to control","12.5 µM, Day 14",1.454 fold change
same,"VEGF production, fold change compared to control","12.5 µM, Day 14",0.8682 fold change
same,cytokine on which the drug had the greatest effect,"NASH microtissues, high NPC, + TGFβ",IL-1Rα
